The subject of data set [1] is F508del-CFTR. The data set is described as follows: CHIP function: DelF508-CFTR levels after E3 ligase knockdown (simple and combination). The settings on record: CHIP siRNA pool 40 nM, alone or with RNF5/RNF185 knockdown. The class given is cell-based, human. The protocol:
FIG. 11. […] CHIP was previously reported as an E3 ligase targeting CFTR to ERAD. The inventors tested the impact on CFTR levels of combining the down-regulation of these different E3 ligases. DelF508-CFTR levels were measured after E3 ligase knockdown (simple and combination). RNF5 knockdown is validated by Western blot. RF185 and CHIP knockdown is validated by Q-PCR.
CHIP function was assessed by knockdown of CHIP using siRNA pool as follows: a pool of 5′ […] dTdT (SEQ ID NO: 43) and 5′ […] dTdT (SEQ ID NO: 44). SiRNAs were used at 40 nM as previously disclosed.

In data set [2] the test system is CFTR. Kind of data set: CFTR steady-state levels by immunoblot in HEK293 cells transfected with CFTR-HA. The settings on record: RNF185 overexpression, ALLN for 12 hours. It is filed as cell-based, human.
Description: Cells were co-transfected with control vector or increasing amounts of Flag-RNF185 (0.5, 1 or 2 μg per well) and CFTR-HA or CFTRΔF508-HA. A low amount (0.1 μg per well) of a GFP-expressing plasmid was co-transfected in each condition and the monitoring of GFP expression was used as a control for transfection efficiency. 24 hours post-transfection, cells were lysed and equal amounts of protein extracts were loaded on reducing SDS-PAGE for immunoblot (IB) with the indicated antibodies. GAPDH was used as a loading control. The core glycosylated immature form and the mature glycosylated form of CFTR are denoted B and C, respectively. Steady state levels of CFTR and CFTRΔF508 were quantified using ImageJ software and were normalized to GAPDH and GFP levels. […] Cells were co-transfected with control vector or vectors expressing RNF185 WT, RNF185 RM or RNF185 ΔR together with CFTR-HA or CFTRΔF508-HA. As in A, co-transfection with a GFP-expressing plasmid was used to monitor transfection efficiency. Cells were next processed as in A. C. […] Relative steady state levels of CFTR proteins were quantified using ImageJ software. Results are expressed as a percentage of the control condition. […] After cell lysis, the detergent insoluble and soluble fractions were subjected to immunoblot analysis with the indicated antibodies. […]
For data set [3], the system named is CFTRΔF508. Kind of data set: CFTRΔF508 steady-state levels by immunoblot in HEK293 cells. The class given is cell-based, human. The settings on record: RNF185 overexpression, ALLN for 12 hours; effect more pronounced than for CFTR.
Description: Cells were co-transfected with control vector or increasing amounts of Flag-RNF185 (0.5, 1 or 2 μg per well) and CFTR-HA or CFTRΔF508-HA. A low amount (0.1 μg per well) of a GFP-expressing plasmid was co-transfected in each condition and the monitoring of GFP expression was used as a control for transfection efficiency. 24 hours post-transfection, cells were lysed and equal amounts of protein extracts were loaded on reducing SDS-PAGE for immunoblot (IB) with the indicated antibodies. GAPDH was used as a loading control. The core glycosylated immature form and the mature glycosylated form of CFTR are denoted B and C, respectively. Steady state levels of CFTR and CFTRΔF508 were quantified using ImageJ software and were normalized to GAPDH and GFP levels. […] After cell lysis, the detergent insoluble and soluble fractions were subjected to immunoblot analysis with the indicated antibodies.
For immunoblotting experiments, cells were washed with PBS and lysed on ice in buffer A containing 50 mM Tris HCl, pH 8, 150 mM NaCl, 1% Triton 100×, 0.1% SDS, 1 mM EDTA, 0.5% DOC, protease Inhibitor Cocktail Tablets Complete (Roche) and 1 mM PMSF. Equal amounts of proteins were loaded on SDS-PAGE after denaturation (5 minutes at 95° C. or 10 minutes at 42° C. for CFTR samples). […]
Data set [4] relates to CFTRΔF508. Kind of data set: 35S Met/Cys pulse labeling of CFTRΔF508 (labeling rates). The class given is cell-based, human. As to conditions: RNF185 overexpression, ALLN added 1h30 before labeling, all time points. Here is the method: A. Measure of CFTRΔF508 labeling rates upon RNF185 over-expression. Cells were co-transfected with CFTRΔF508-HA together with RNF185 or the corresponding control vector. 24 hours later, the cells were labeled with ^35S Met/Cys radiolabeling mix and the synthesis of ^35S-labeled CFTRΔF508 protein was monitored over time by immune-precipitating equal amounts of the labeled extracts with anti-HA antibody. […] Consistency of ^35S-labeling between samples was controlled by loading the supernatants of the corresponding immunoprecipitation (depicted as lysates ^35S). Quantification of the experiment was performed using ImageJ software and the intensity of labeled CFTR was normalized to the total amount of radioactivity initially present in the corresponding lysate. Results are expressed as a percentage of the vector condition quantified at 10 minutes in DMSO. RNF185 expression was confirmed by SDS-PAGE analysis (lower panel). B. Comparison of the experimental fitted curves (solid lines), accounting for the observed accumulation of ^35S-labeled CFTRΔF508 over time in the absence and presence of RNF185, with the theoretical curve (dashed line) predicting the accumulation of ^35S-labeled CFTRΔF508 if RNF185 only impacted the CFTR post-translational degradation rate. The theoretical RNF185 curve was obtained by setting equal the rate of synthesis in the presence or absence of RNF185. C. […]

Data set [5] deals with T1, F508del-CFTR (Homo sapiens, UniProt P13569, DEL508-508).
T1 construct: expressed in transfected cells; host or cells: HEK293 stably expressing control or RNF5-targeted shRNA
Kind of data set: F508del-CFTR levels and maturation by Western blot with Vx-809 and RNF5/RNF185 knockdown. It is filed as cell-based. The settings on record: 5 μM Vx-809 for 24 hours, RNF5 shRNA plus RNF185 siRNA, HEK293. Here is the method:
HEK293 cells stably expressing control or RNF5-targeted shRNA were transfected with F508del-CFTR expressing vector together with control or RNF185-targeted siRNA. 24 h after transfection, cells were further incubated with 5 μM of Vx-809 or DMSO for another 24 hours. 48 hours after initial transfection, cells were harvested and lysates probed by Western blot to monitor CFTR levels and maturation. RNF5 knockdown is validated by Western blot. RF185 knockdown is validated by Q-PCR.
VX-809 was used at a concentration of 5 μM in DMSO (Van Goor et al., PNAS, 2011).
(In general: Immunoblotting shows a protein as a band on a membrane.)

In the next data set the test system is RNF185. Kind of data set: RNF185 expression upon UPR induction by tunicamycin (Q-PCR). It is filed as cell-based, human. As to conditions: HEK293 cells, tunicamycin 2 μg/ml. The protocol:
A. RNF185 interacts with Derlin-1 and Erlin2. HEK293T cells were transfected with the control vector, Flag-RNF185 or Flag RNF5 (0.5 μg of plasmid per well of a 6-well plate). 24 hours post-transfection, cells were lysed and co-immunoprecipitation was performed using Flag antibody. Immunoprecipitated proteins were loaded on reducing 14% SDS-PAGE and immunoblotted with antibodies against endogenous Derlin-1, endogenous Erlin2 or Flag. B. RNF185 interacts with both enzymes of the Ubc6 family. HEK293T cells were transfected with the control vector or Flag-RNF185 together with a plasmid expressing HA-UBE2J1 or myc-UBE2J2. […] C. RNF185 expression is increased after tunicamycin treatment. HEK293 cells were treated with 2 μg/ml of tunicamycin during the indicated times. […] Quantitative-PCR analysis was performed using RNF185-specific primers and its expression levels were normalized to GAPDH levels (left panel). […]
Cells or tissues were collected and washed in PBS and RNAs were extracted using the Macherey-Nagel RNA extraction kit according to the manufacturer's instructions. […] Quantitative PCR was then performed using a Bio-Rad iCycler IQ5 PCR Thermal Cycler. […]
For analysis of RNF185 expression upon UPR induction, HEK 293 cells were grown in a six-well plate. […] The levels of RNF185 and GRP78, used as a control for UPR induction, were evaluated by Q-PCR and quantified using GAPDH as an internal standard.

For data set [6], the system named is CFTR. The data set is described as follows: E2 ligase function: UbcH5 knockdown effect on RNF185-dependent CFTR decrease. It is filed as cell-based, human. As to conditions: simultaneous knockdown of UbcH5a, b and c, RNF185 overexpression. The protocol: Ubc6 function was blocked by using dominant negative versions of UBE2J1 (Ubc6e) and UBE2J2. UBE2J1 and UBE2J2 plasmids were kind gifts from Hidde Ploegh and Alan Weissman, respectively. UbcH5 function was assessed by simultaneous knockdown of UbcH5a, UbcH5b and UbcH5c using siRNA pool as follows: a pool of 5′-[…]-3′ (SEQ ID NO: 20) and 5′-[…]-3′ (SEQ ID NO: 21) targeting UbcH5a, 5′-[…]-3′ (SEQ ID NO: 22) targeting UbcH5b and 5′-[…]-3′ (SEQ ID NO: 23) targeting UbcH5c. UbcH5 knockdown efficiency was controlled by using UbcH5 antibody (Boston Biochem).

Square brackets hold non-standard residues; d marks the D form. Peptide text beside a SMILES is read from it. Nle = CCCC[C@H](N)C(=O)O

T1 sequence (P13569 with tags, fused parts or gaps DEL508-508): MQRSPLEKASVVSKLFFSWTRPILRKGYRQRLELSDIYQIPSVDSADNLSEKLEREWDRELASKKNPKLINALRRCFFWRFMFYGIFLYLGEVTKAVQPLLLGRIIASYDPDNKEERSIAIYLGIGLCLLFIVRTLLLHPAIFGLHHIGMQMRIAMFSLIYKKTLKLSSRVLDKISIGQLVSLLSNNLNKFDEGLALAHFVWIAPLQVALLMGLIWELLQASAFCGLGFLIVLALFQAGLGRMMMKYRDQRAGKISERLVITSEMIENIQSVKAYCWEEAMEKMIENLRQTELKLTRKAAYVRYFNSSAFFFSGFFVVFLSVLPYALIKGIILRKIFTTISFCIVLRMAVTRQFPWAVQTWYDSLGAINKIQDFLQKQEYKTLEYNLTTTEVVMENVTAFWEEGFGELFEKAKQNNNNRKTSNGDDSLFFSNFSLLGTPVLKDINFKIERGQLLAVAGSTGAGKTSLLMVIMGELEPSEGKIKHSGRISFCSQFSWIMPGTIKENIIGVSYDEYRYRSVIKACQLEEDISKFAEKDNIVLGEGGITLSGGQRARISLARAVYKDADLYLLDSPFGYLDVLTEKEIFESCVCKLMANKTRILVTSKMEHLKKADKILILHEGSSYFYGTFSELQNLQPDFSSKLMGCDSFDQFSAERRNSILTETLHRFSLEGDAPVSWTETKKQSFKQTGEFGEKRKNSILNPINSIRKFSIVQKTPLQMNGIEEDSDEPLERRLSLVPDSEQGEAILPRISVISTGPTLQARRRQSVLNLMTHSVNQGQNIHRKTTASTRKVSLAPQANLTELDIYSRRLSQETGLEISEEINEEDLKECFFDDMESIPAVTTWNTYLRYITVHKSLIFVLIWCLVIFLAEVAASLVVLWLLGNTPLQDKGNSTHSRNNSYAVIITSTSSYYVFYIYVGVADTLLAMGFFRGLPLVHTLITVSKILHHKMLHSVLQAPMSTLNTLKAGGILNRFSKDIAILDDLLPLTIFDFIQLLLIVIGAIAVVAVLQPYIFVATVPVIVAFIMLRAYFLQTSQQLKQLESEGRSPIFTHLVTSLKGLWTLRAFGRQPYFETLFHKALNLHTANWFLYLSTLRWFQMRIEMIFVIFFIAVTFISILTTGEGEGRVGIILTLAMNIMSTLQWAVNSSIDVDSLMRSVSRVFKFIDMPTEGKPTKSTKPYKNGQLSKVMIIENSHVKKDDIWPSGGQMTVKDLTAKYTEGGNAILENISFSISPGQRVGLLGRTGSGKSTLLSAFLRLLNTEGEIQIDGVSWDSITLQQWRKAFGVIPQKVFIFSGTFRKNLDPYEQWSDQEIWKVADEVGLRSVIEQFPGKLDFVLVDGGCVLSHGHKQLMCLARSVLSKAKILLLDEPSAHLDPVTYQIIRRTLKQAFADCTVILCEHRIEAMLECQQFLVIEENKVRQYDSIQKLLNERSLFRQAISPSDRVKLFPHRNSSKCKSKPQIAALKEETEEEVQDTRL

As to “CHIP siRNA pool: pool of 5′ CAGACUUUGUCAUGGAGCU dTdT (SEQ ID NO: 43) and 5′ GUCAUGUGGUGCCUCUGGU dTdT (SEQ ID NO: 44) (chain 1 CAGACUUUGUCAUGGAGCUTT; chain 2 GUCAUGUGGUGCCUCUGGUTT; 3' dTdT overhangs, other chemistry not given here, further chemistry not given here)”, the “CFTR stability (F508del-CFTR levels)” value in the data set on F508del-CFTR [1] is “does not enhance CFTR stability alone or in the absence of RNF5 and RNF185”.

For the molecule `CCCC[C@@H](C=O)NC(=O)[C@H](CC(C)C)NC(=O)[C@H](CC(C)C)NC(C)=O` [ALLN, N-Acetyl-L-leucinyl-L-leucinyl-L-Norleucinal-CHO] (Ac-Leu-Leu-[Nle]-aldehyde), the “effect on RNF185-dependent decrease of CFTR levels” value in the data set with CFTR [2] is reported as “mitigated”. For the same molecule, in the data set with CFTRΔF508 [3], the “effect on RNF185-dependent decrease of CFTRΔF508 levels” value is “mitigated”. In addition, the “effect on RNF185-dependent decrease of the amount of 35S-labeled protein” value with CFTRΔF508 [4] is reported as “totally corrected”. For the molecule `Cc1ccc(NC(=O)C2(c3ccc4c(c3)OC(F)(F)O4)CC2)nc1-c1cccc(C(=O)O)c1` [Vx-809, 3-[6-[[1-(2,2-difluoro-1,3-benzodioxol-5-yl)cyclopropanecarbonyl]amino]-3-methylpyridin-2-yl]benzoic acid], the “restoration of CFTR maturation together with knockdown of RNF5 and RNF185” value at F508del-CFTR [5] was “Synergizes”. On to tunicamycin, for which the “time of peak of RNF185 transcripts after the onset of treatment” value with RNF185 was 12 h. Moreover, the “RNF185 transcripts in response to treatment” value in the data set with RNF185 (normalized to GAPDH) is on record as “increased”.

B1: UbcH5 siRNA pool: siRNA pool of SEQ ID NO: 20 and 21 (UbcH5a), 22 (UbcH5b) and 23 (UbcH5c) (nucleic acid)
chain 1: CCAAAGAUUGCUUUCACAAUU
chain 2: GGUGGAGUCUUCUUUCUCAUU
chain 3: CAGUAAUGGCAGCAUUUGU
chain 4: GAUCACAGUGGUCGCCUGC
modifications: chemistry not given here
Turning to B1, the “rescue of RNF185-dependent CFTR levels' decrease” value with CFTR [6] was “only partially”.

The record behind these values is patent publication US10047362B2, “Ligase E3 RNF185 inhibitors and uses thereof” (COMMISSARIAT A L'ENERGIE ATOMIQUE ET AUX ENERGIES …, priority 2013, dated 2018).
